From patent EP1096022B1, “Immuno-stimulating polysaccharide substance from Phellinus spp. strain and use thereof” (KOREA INSTITUTE OF SCIENCE AND TECHNOLOGY, priority 1999, dated 2001)

How the values were obtained:
[1] = tested on: B16F10 cutaneous cancer cells; experiment: Viability of mice implanted intraperitoneally with B16F10 cells, co-administration with chemotherapeutics, 60 days; type: in vivo, mouse; details: for Proportion (%): untreated = 100
Description: (§1) A homogeneous plantation test system of B 16F 10 cutaneous cancer cell was utilized for the measurement of the anticancer activity upon co-administration of the polysaccharide substance and adriamycin. The cutaneous cancer cells were implanted in the peritoneal cavity of mice. Adriamycin was peritoneally administered to the mice for 12 days after tumor implantation while the polysaccharide substance was peritoneally administered from a week before the implantation to 12 days after the implantation. For 60 days, the viability of the mice was recorded everyday. Adriamycin was used at such low amounts as not to damage the mice.
The cutaneous cancer cells were implanted in the peritoneal cavity of mice. […] For 60 days, the viability of the mice was recorded everyday. Mitomycin C was used at such low amounts as not to damage the mice.
The cutaneous cancer cells were implanted in the peritoneal cavity of mice. […] For 60 days, the viability of the mice was recorded everyday. Cisplastin was used at such low amounts as not to damage the mice.
as §1, with “B16F10” for “B 16F 10”, “5-fluoro uracil, as in the above experiments.” for “adriamycin.”, “5-fluoro uracil” for “Adriamycin”

[2] = tested on: NCl-H23 lung cancer cells; experiment: Human lung cancer cells implanted subcutaneously in nude mice, tumor size and weight; type: in vivo
Procedure: The activity of the polysaccharide substance against human cancer was assayed using NCl-H23, a lung cancer cell line. Nude mice were subcutaneously implanted with NCl-H23 lung cancer cells. The polysaccharide substance and adriamycin were peritoneally administered to the nude mice for 12 days after cancer cell implantation. […] Because the nude mice were devoid of T-cells, their immunological competency was generally attributed to the activity of natural killer cells or macrophage cells. Therefore, the immunological enhancement obtained when administering the polysaccharide substance was meditated through these two type cells.

[3] = tested on: B16F10 cutaneous cancer cells; experiment: Lung metastasis after tail-vein implantation of B16F10 cells, spots counted on the 14th day; type: in vivo, C57BL/6 mice
Description: In order to test the polysaccharide substance for the prevention of cancer metastasis, B16F10 cutaneous cancer cells were implanted in the tail veins of C57BL/6 mice. On the 14th day after implantation, the lungs were isolated from the mice to investigate whether or to what extent cancer metastasis occurred. Adriamycin was peritoneally administered to the mice for 12 days after tumor implantation while the polysaccharide substance was peritoneally administered from a week before the implantation to 12 days after the implantation. […]

[4] = tested on: B16F10 mouse cutaneous cancer cells; experiment: Direct cytotoxicity, sulforhodamin B method
[5] = tested on: NCl-H23 human lung cancer cells; experiment: Direct cytotoxicity, sulforhodamin B method
[6] = 0.3 µg/mL, 2nd day after treatment

Compound: COc1cccc2c1C(=O)c1c(O)c3c(c(O)c1C2=O)C[C@@](O)(C(=O)CO)C[C@@H]3O[C@H]1C[C@H](N)[C@H](O)[C@H](C)O1 [Adriamycin]
- Avg. Viability ([1]; adriamycin 0.1 mg/kg alone): 35.4 days
- Nos. of viable mice on the 60th day ([1]; adriamycin 0.1 mg/kg alone): 0/10
- Proportion (%) ([1]; adriamycin 0.1 mg/kg alone): 195.6%
- Avg. Viability ([1]; adriamycin 0.3 mg/kg alone): 40.1 days
- Nos. of viable mice on the 60th day ([1]; adriamycin 0.3 mg/kg alone): 2/10
- Proportion (%) ([1]; adriamycin 0.3 mg/kg alone): 240.9%
- Cell size ([2]; 14th day, 1mg/kg peritoneally for 12 days): 12 mm^3
- Cell size ([2]; 17th day, 1mg/kg): 27 mm^3
- Cell size ([2]; 18th day, 1mg/kg): 34 mm^3
- Cell size ([2]; 19th day, 1mg/kg): 33 mm^3
- Final Cancer Weight ([2]; 19th day, 1mg/kg): 95
- Nos. of Spots ([3]; adriamycin 1mg/kg alone): 197
- Nos. of Spots ([3]; adriamycin 3mg/kg alone): 172
- cell quantity (untreated = 100 %) [4, 6]: 56%
- cell quantity (untreated = 100 %) ([4]; 1 µg/mL, 2nd day): 29%
- cell quantity (untreated = 100 %) ([4]; 3 µg/mL, 2nd day): 9%
- cell quantity (untreated = 100 %) ([4]; 10 µg/mL, 2nd day): -10%
- cell quantity (untreated = 100 %) ([4]; 30 µg/mL, 2nd day): -10%
- cytotoxicity to cancer cells ([4]; overall statement): potent cytotoxicity
- cell quantity (untreated = 100 %) [5, 6]: 100%
- cell quantity (untreated = 100 %) ([5]; 1 µg/mL, 2nd day): 71%
- cell quantity (untreated = 100 %) ([5]; 3 µg/mL, 2nd day): 39%
- cell quantity (untreated = 100 %) ([5]; 10 µg/mL, 2nd day): 7%
- cell quantity (untreated = 100 %) ([5]; 30 µg/mL, 2nd day): -1%
- cytotoxicity to cancer cells ([5]; overall statement): potent cytotoxicity

Compound: O=c1[nH]cc(F)c(=O)[nH]1 [5-FU, 5-fluoro uracil]
- Avg. Viability ([1]; 5-fluorouracil 1 mg/kg alone): 33.0 days
- Nos. of viable mice on the 60th day ([1]; 5-fluorouracil 1 mg/kg alone): 0/10
- Avg. Viability ([1]; 5-fluorouracil 1 mg/kg alone, listed as 5-Fluorouracil): 34.2 days
- Proportion (%) ([1]; 5-fluorouracil 1 mg/kg alone): 187.8%
- Avg. Viability ([1]; 5-fluorouracil 3 mg/kg alone): 40.5 days
- Nos. of viable mice on the 60th day ([1]; 5-fluorouracil 3 mg/kg alone): 2/10
- Avg. Viability ([1]; 5-fluorouracil 3 mg/kg alone, listed as 5-fluorouracil): 40.2 days
- Proportion (%) ([1]; 5-fluorouracil 3 mg/kg alone): 222%

Compound: N.N.[Cl][Pt][Cl] [C.P, Cisplatin]
- Avg. Viability ([1]; cisplatin 0.5 mg/kg alone): 33.0 days
- Nos. of viable mice on the 60th day ([1]; cisplatin 0.5 mg/kg alone): 0/10
- Avg. Viability ([1]; cisplatin 0.5 mg/kg alone, listed as Cisplatin): 33 days
- Proportion (%) ([1]; cisplatin 0.5 mg/kg alone): 182.3%
- Avg. Viability ([1]; cisplatin 1.5 mg/kg alone): 40.5 days
- Nos. of viable mice on the 60th day ([1]; cisplatin 1.5 mg/kg alone): 2/10
- Proportion (%) ([1]; cisplatin 1.5 mg/kg alone): 223.8%

Compound: CO[C@@]12[C@H](COC(N)=O)C3=C(C(=O)C(C)=C(N)C3=O)N1C[C@@H]1N[C@@H]12 [M.C, Mitomycin C]
- Nos. of viable mice on the 60th day ([1]; mitomycin C 0.2 mg/kg alone): 0/10
- Avg. Viability ([1]; mitomycin C 0.6 mg/kg alone): 38.0 days
- Nos. of viable mice on the 60th day ([1]; mitomycin C 0.6 mg/kg alone): 1/10
